In article PMC7411887, “New Paracyclophanylthiazoles with Anti-Leukemia Activity: Design, Synthesis, Molecular Docking, and Mechanistic Studies” (Molecules, 2020):
Where two headings read alike, the source gives them in different places.

Experiments:
[1] = system: leukemia SR; assay: MTT antiproliferative assay; conditions: Homo sapiens, read-out: Cytotoxicity IC50 L.SR
[2] = system: MDA-MB-435; assay: NCI single-dose screen (SRB); assay type: cell-based; conditions: Homo sapiens; Melanoma MDA-MB-435; 10^−5 M; read-out: Growth inhibition percentage
Method: (§1) The methodology of the NCI anticancer screening was described in detail elsewhere (http://www.dtp.nci.nih.gov). […] Tested compounds were added to the culture at a single concentration (10^−5 M) and the cultures were incubated for 48 h. End-point determinations were made with a protein binding dye, SRB. Results for each tested compound were reported as the percentage growth of the treated cells when compared to the untreated control cells. The percentage growth was evaluated spectrophotometrically versus controls not treated with test agents. All experiments were repeated three times (Table 1).
(§2) Briefly, the protocol was performed on 60 human tumor cell lines derived from different nine neoplastic diseases. […] If the results obtained met selection criteria, then the compound was tested again on all 60 cell lines in 5× 10-fold dilutions with the top dose being 10^−4 M or 150 μg/mL. Detailed methods are described in the Supplementary Materials related to this article.
(§3) on their site (http://www.dtp.nci.nih.gov). But briefly, the protocol performed at sixty human
(§4) National Cancer Institute, Bethesda, USA. If the results obtained meet selection criteria, then the
(§5) 10-4 molar or 150 μg/mL. […]

[3] = system: MDA-MB-231/ATCC; assay: NCI single-dose screen (SRB); assay type: cell-based; conditions: Homo sapiens; Breast Cancer MDA-MB-231/ATCC; 10^−5 M; read-out: Growth inhibition percentage
Method: as §1, §2, §3, §4, §5

[4] = system: RPMI-8226; assay: NCI single-dose screen (SRB); assay type: cell-based; conditions: Homo sapiens; Leukemia RPMI-8226; 10^−5 M; read-out: Growth inhibition percentage
Method: as §1, §2, §3, §4, §5

[5] = system: UO-31; assay: NCI single-dose screen (SRB); assay type: cell-based; conditions: Homo sapiens; Renal Cancer UO-31; 10^−5 M; read-out: Growth inhibition percentage
Method: as §1, §2, §3, §4, §5

[6] = system: OVCAR-5; assay: NCI single-dose screen (SRB); assay type: cell-based; conditions: Homo sapiens; Ovarian Cancer OVCAR-5; 10^−5 M; read-out: Growth inhibition percentage
Method: as §1, §2, §3, §4, §5

[7] = system: UACC-62; assay: NCI single-dose screen (SRB); assay type: cell-based; conditions: Homo sapiens; Melanoma UACC-62; 10^−5 M; read-out: Growth inhibition percentage
Method: as §1, §2, §3, §4, §5

[8] = system: HOP-92; assay: NCI single-dose screen (SRB); assay type: cell-based; conditions: Homo sapiens; Non-Small-Cell Lung Cancer HOP-92; 10^−5 M; read-out: Growth inhibition percentage
Method: as §1, §2, §3, §4, §5

[9] = system: SK-MEL-5; assay: NCI single-dose screen (SRB); assay type: cell-based; conditions: Homo sapiens; Melanoma SK-MEL-5; 10^−5 M; read-out: Growth inhibition percentage
Method: as §1, §2, §3, §4, §5

[10] = system: A549/ATCC; assay: NCI single-dose screen (SRB); assay type: cell-based; conditions: Homo sapiens; Non-Small-Cell Lung Cancer A549/ATCC; 10^−5 M; read-out: Growth inhibition percentage
Method: as §1, §2, §3, §4, §5

[11] = system: NCI-H460; assay: NCI single-dose screen (SRB); assay type: cell-based; conditions: Homo sapiens; Non-Small-Cell Lung Cancer NCI-H460; 10^−5 M; read-out: Growth inhibition percentage
Method: as §1, §2, §3, §4, §5

[12] = system: MOLT-4; assay: NCI single-dose screen (SRB); assay type: cell-based; conditions: Homo sapiens; Leukemia MOLT-4; 10^−5 M; read-out: Growth inhibition percentage
Method: as §1, §2, §3, §4, §5

[13] = system: SF-268; assay: NCI single-dose screen (SRB); assay type: cell-based; conditions: Homo sapiens; CNS Cancer SF-268; 10^−5 M; read-out: Growth inhibition percentage
Method: as §1, §2, §3, §4, §5

[14] = system: OVCAR-4; assay: NCI single-dose screen (SRB); assay type: cell-based; conditions: Homo sapiens; Ovarian Cancer OVCAR-4; 10^−5 M; read-out: Growth inhibition percentage
Method: as §1, §2, §3, §4, §5

[15] = system: CAKI-1; assay: NCI single-dose screen (SRB); assay type: cell-based; conditions: Homo sapiens; Renal Cancer CAKI-1; 10^−5 M; read-out: Growth inhibition percentage
Method: as §1, §2, §3, §4, §5

[16] = system: HCT-116; assay: NCI single-dose screen (SRB); assay type: cell-based; conditions: Homo sapiens; Colon Cancer HCT-116; 10^−5 M; read-out: Growth inhibition percentage
Method: as §1, §2, §3, §4, §5

[17] = system: HCC-2998; assay: NCI single-dose screen (SRB); assay type: cell-based; conditions: Homo sapiens; Colon Cancer HCC-2998; 10^−5 M; read-out: Growth inhibition percentage
Method: as §1, §2, §3, §4, §5

[18] = system: HT29; assay: NCI single-dose screen (SRB); assay type: cell-based; conditions: Homo sapiens, HT-29; Colon Cancer HT29; 10^−5 M; read-out: Growth inhibition percentage
Method: as §1, §2, §3, §4, §5

[19] = system: MALME-3M; assay: NCI single-dose screen (SRB); assay type: cell-based; conditions: Homo sapiens; Melanoma MALME-3M; 10^−5 M; read-out: Growth inhibition percentage
Method: as §1, §2, §3, §4, §5

[20] = system: HCT-15; assay: NCI single-dose screen (SRB); assay type: cell-based; conditions: Homo sapiens; Colon Cancer HCT-15; 10^−5 M; read-out: Growth inhibition percentage
Method: as §1, §2, §3, §4, §5

[21] = system: NCI-H522; assay: NCI single-dose screen (SRB); assay type: cell-based; conditions: Homo sapiens; Non-Small-Cell Lung Cancer NCI-H522; 10^−5 M; read-out: Growth inhibition percentage
Method: as §1, §2, §3, §4, §5

[22] = system: PC-3; assay: NCI single-dose screen (SRB); assay type: cell-based; conditions: Homo sapiens; Prostate Cancer PC-3; 10^−5 M; read-out: Growth inhibition percentage
Method: as §1, §2, §3, §4, §5

[23] = system: KM12; assay: NCI single-dose screen (SRB); assay type: cell-based; conditions: Homo sapiens; Colon Cancer KM12; 10^−5 M; read-out: Growth inhibition percentage
Method: as §1, §2, §3, §4, §5

[24] = system: SK-MEL-2; assay: NCI single-dose screen (SRB); assay type: cell-based; conditions: Homo sapiens; Melanoma SK-MEL-2; 10^−5 M; read-out: Growth inhibition percentage
Method: as §1, §2, §3, §4, §5

[25] = system: MDA-MB-468; assay: NCI single-dose screen (SRB); assay type: cell-based; conditions: Homo sapiens; Breast Cancer MDA-MB-468; 10^−5 M; read-out: Growth inhibition percentage
Method: as §1, §2, §3, §4, §5

[26] = system: HS 578T; assay: NCI single-dose screen (SRB); assay type: cell-based; conditions: Homo sapiens; Breast Cancer HS 578T; 10^−5 M; read-out: Growth inhibition percentage
Method: as §1, §2, §3, §4, §5

[27] = system: EKVX; assay: NCI single-dose screen (SRB); assay type: cell-based; conditions: Homo sapiens; Non-Small-Cell Lung Cancer EKVX; 10^−5 M; read-out: Growth inhibition percentage
Method: as §1, §2, §3, §4, §5

[28] = system: SF-539; assay: NCI single-dose screen (SRB); assay type: cell-based; conditions: Homo sapiens; CNS Cancer SF-539; 10^−5 M; read-out: Growth inhibition percentage
Method: as §1, §2, §3, §4, §5

[29] = system: UACC-257; assay: NCI single-dose screen (SRB); assay type: cell-based; conditions: Homo sapiens; Melanoma UACC-257; 10^−5 M; read-out: Growth inhibition percentage
Method: as §1, §2, §3, §4, §5

[30] = system: leukemia RPMI-8226; assay: MTT antiproliferative assay; conditions: mean ± SD
[31] = Homo sapiens, RPMI-8226, read-out: Cytotoxicity IC50 RPMI-8226, MTT

Compound: COC(=O)C=C1SC(=Nc2cccnc2)N(NC(=O)c2cc3ccc2CCc2ccc(cc2)CC3)C1=O [Compound 3c, Methyl (E)-2-((E)-3-[2.2]paracyclophanyl)amido-4-oxo-2-(pyridin-3-ylimino)-thiazolidin-5-ylidene)acetate]
- IC50 [1]: 4.84 ± 0.0843 µM
- inhibition at 10 µM [2]: 0%
- inhibition at 10 µM [3]: 10.6%
- inhibition at 10 µM [4]: 83%
- inhibition at 10 µM [5]: 21.9%
- inhibition at 10 µM [6]: 0.61%
- inhibition at 10 µM [7]: 10.7%
- inhibition at 10 µM [8]: 8.14%
- inhibition at 10 µM [9]: 3.64%
- inhibition at 10 µM [10]: 2.04%
- inhibition at 10 µM [11]: 0.75%
- inhibition at 10 µM [12]: 21.9%
- inhibition at 10 µM [13]: 3.08%
- inhibition at 10 µM [14]: 7.76%
- inhibition at 10 µM [15]: 4.78%
- inhibition at 10 µM [16]: 6.35%
- inhibition at 10 µM [17]: 0%
- inhibition at 10 µM [18]: 7.71%
- inhibition at 10 µM [19]: 0%
- inhibition at 10 µM [20]: 11.8%
- inhibition at 10 µM [21]: 17.7%
- inhibition at 10 µM [22]: 18.2%
- inhibition at 10 µM [23]: 7.32%
- inhibition at 10 µM [24]: 0%
- inhibition at 10 µM [25]: 18%
- inhibition at 10 µM [26]: 0%
- inhibition at 10 µM [27]: 2.61%
- inhibition at 10 µM [28]: 11.6%
- inhibition at 10 µM [29]: 0.83%
- IC50 [30, 31]: 9.69 µM
- IC50 ([30]; read-out: Cytotoxicity IC50 RPMI-8226, MTT): 9.96 ± 0.345 µM

Compound: C=CCN1C(=O)C(=CC(=O)OC)SC1=NNC(=O)c1cc2ccc1CCc1ccc(cc1)CC2 [Compound 3d]
- IC50 [1]: 22.06 ± 0.0679 µM
- inhibition at 10 µM [2]: 0%
- inhibition at 10 µM [3]: 2.27%
- inhibition at 10 µM [4]: 109%
- inhibition at 10 µM [5]: 24.6%
- inhibition at 10 µM [6]: 3.9%
- inhibition at 10 µM [7]: 22.8%
- inhibition at 10 µM [8]: 18.6%
- inhibition at 10 µM [9]: 7.53%
- inhibition at 10 µM [10]: 5.2%
- inhibition at 10 µM [11]: 0%
- inhibition at 10 µM [12]: 64.5%
- inhibition at 10 µM [13]: 0%
- inhibition at 10 µM [14]: 2.93%
- inhibition at 10 µM [15]: 5.23%
- inhibition at 10 µM [16]: 46%
- inhibition at 10 µM [17]: 0%
- inhibition at 10 µM [18]: 54%
- inhibition at 10 µM [19]: 7.56%
- inhibition at 10 µM [20]: 33.1%
- inhibition at 10 µM [21]: 39.2%
- inhibition at 10 µM [22]: 51.6%
- inhibition at 10 µM [23]: 18.4%
- inhibition at 10 µM [24]: 2.7%
- inhibition at 10 µM [25]: 23.7%
- inhibition at 10 µM [26]: 6.41%
- inhibition at 10 µM [27]: 9.16%
- inhibition at 10 µM [28]: 0.33%
- inhibition at 10 µM [29]: 8.89%
- IC50 [30, 31]: 17.81 ± 0.0544 µM

Compound: COC(=O)/C=C1/S/C(=N/NC(=O)c2cc3ccc2CCc2ccc(cc2)CC3)N(C2CC2)C1=O [Compound 3f]
- inhibition at 10 µM [2]: 8.06%
- inhibition at 10 µM [3]: 3.5%
- inhibition at 10 µM [4]: 49.8%
- inhibition at 10 µM [5]: 21.7%
- inhibition at 10 µM [6]: 0%
- inhibition at 10 µM [7]: 18%
- inhibition at 10 µM [8]: 16.2%
- inhibition at 10 µM [9]: 14.5%
- inhibition at 10 µM [10]: 11.4%
- inhibition at 10 µM [11]: 1.98%
- inhibition at 10 µM [12]: 55.6%
- inhibition at 10 µM [13]: 2.56%
- inhibition at 10 µM [14]: 10.5%
- inhibition at 10 µM [15]: 24.5%
- inhibition at 10 µM [16]: 24.6%
- inhibition at 10 µM [17]: 0%
- inhibition at 10 µM [18]: 24%
- inhibition at 10 µM [19]: 11.3%
- inhibition at 10 µM [20]: 29.4%
- inhibition at 10 µM [21]: 30%
- inhibition at 10 µM [22]: 18.9%
- inhibition at 10 µM [23]: 1.32%
- inhibition at 10 µM [24]: 13.5%
- inhibition at 10 µM [25]: 29.7%
- inhibition at 10 µM [26]: 5.01%
- inhibition at 10 µM [27]: 12.2%
- inhibition at 10 µM [28]: 0%
- inhibition at 10 µM [29]: 16.3%
